Laboratory results as given in patent US20060069132A1, “Azolecarboxamide herbicides” (priority 2004, published 2006).

Assays:
[1] = test system: rice; experiment: Test B flooded paddy test; assay type: in vivo, Oryza sativa; settings: scale 0 to 100 (0 no effect, 100 complete control)
Method in brief: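 Treated at 2-leaf (paddy) or 1–4-leaf, 2–18 cm (postemergence); greenhouse 13–15 d; visual score vs control, 0 none to 100 complete control; dash = not tested.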

[2] = test system: giant foxtail; experiment: Test A pre-/postemergence herbicide test; assay type: in vivo, Setaria faberi
Method in brief: (§1)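 Visual injury rating on a 0–100 scale (0 no effect, 100 complete control) versus untreated controls, about ten days after treatment in greenhouse. Pre: directed soil spray onto seeded sandy loam. Post: spray to runoff on plants 2–10 cm tall at one- to two-leaf stage.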

[3] = test system: small flower umbrella sedge; experiment: Test B flooded paddy test; assay type: in vivo, Cyperus difformis; settings: scale 0 to 100 (0 no effect, 100 complete control)
Method in brief: (§2)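 Formulated test chemicals went onto postemergence plants measuring 2 to 18 cm, at one to four leaves. For the paddy assay, species had reached two leaves. Scoring took place 13–15 days later by eye, relative to untreated plants, using 0 for no effect up to 100 for full control.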

[4] = test system: barnyardgrass; experiment: Test A pre-/postemergence herbicide test; assay type: in vivo, Echinochloa crus-galli
Method in brief: as §1

[5] = test system: morningglory; experiment: Test A pre-/postemergence herbicide test; assay type: in vivo, Ipomoea spp.
Method in brief: as §1

[6] = test system: ducksalad; experiment: Test B flooded paddy test; assay type: in vivo, Heteranthera limosa; settings: scale 0 to 100 (0 no effect, 100 complete control)
Method in brief: as §2

[7] = test system: redroot pigweed; experiment: Test A pre-/postemergence herbicide test; assay type: in vivo, Amaranthus retroflexus
Method in brief: as §1

[8] = test system: velvetleaf; experiment: Test A pre-/postemergence herbicide test; assay type: in vivo, Abutilon theophrasti
Method in brief: as §1

[9] = test system: large crabgrass; experiment: Test A pre-/postemergence herbicide test; assay type: in vivo, Digitaria sanguinalis
Method in brief: as §1

[10] = test system: barnyardgrass; experiment: Test B flooded paddy test; assay type: in vivo, Echinochloa crus-galli; settings: scale 0 to 100 (0 no effect, 100 complete control)
Method in brief: as §2

[11] = test system: velvetleaf; experiment: Test B pre-/postemergence herbicide test; assay type: in vivo, Abutilon theophrasti; settings: for Plant response rating (0 to 100 scale), Velvetleaf: 0 is no effect, 100 is complete control, preemergence
Method in brief: (§3)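 Herbicidal effect was judged by eye on a 0–100 scale after plants stood 13 to 15 days in the greenhouse following pre- or postemergence treatment with surfactant-containing formulations.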

[12] = test system: barnyardgrass; experiment: Test B pre-/postemergence herbicide test; assay type: in vivo, Echinochloa crus-galli; settings: for Plant response rating (0 to 100 scale), Barnyardgrass: 0 is no effect, 100 is complete control, preemergence; for Barnyardgrass plant response rating: scale 0 (no effect) to 100 (complete control)
Method in brief: (§4)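 Plants compared with untreated controls 13–15 days post-treatment and given a visual 0–100 injury score. Applications: preemergence to seeds; postemergence at 1- to 4-leaf (2–18 cm); paddy species flooded, 2-leaf stage. Vehicle non-phytotoxic, surfactant included.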

[13] = test system: cocklebur; experiment: Test B pre-/postemergence herbicide test; assay type: in vivo, Xanthium strumarium; settings: for Plant response rating (0 to 100 scale), Cocklebur: 0 is no effect, 100 is complete control, preemergence
Method in brief: as §4

[14] = test system: giant foxtail; experiment: Test B pre-/postemergence herbicide test; assay type: in vivo, Setaria faberi; settings: for Plant response rating (0 to 100 scale), Foxtail, Giant: 0 is no effect, 100 is complete control, preemergence
Method in brief: as §3

[15] = test system: lambsquarters; experiment: Test B pre-/postemergence herbicide test; assay type: in vivo, Chenopodium album
Method in brief: as §3

[16] = test system: pigweed; experiment: Test B pre-/postemergence herbicide test; assay type: in vivo, Amaranthus retroflexus; settings: for Plant response rating (0 to 100 scale), Pigweed: 0 is no effect, 100 is complete control, preemergence
Method in brief: as §3

[17] = test system: blackgrass; experiment: Test B postemergence herbicide test; assay type: in vivo, Alopecurus myosuroides
Method in brief: as §2

[18] = test system: large crabgrass; experiment: Test B pre-/postemergence herbicide test; assay type: in vivo, Digitaria sanguinalis; settings: for Plant response rating (0 to 100 scale), Crabgrass, Large: 0 is no effect, 100 is complete control, preemergence
Method in brief: as §3

[19] = test system: wild oat; experiment: Test B postemergence herbicide test; assay type: in vivo, Avena fatua
Method in brief: as §2

[20] = test system: wheat; experiment: Test B postemergence herbicide test; assay type: in vivo, Triticum aestivum; parameters: key to Wheat plant response rating: 0 = no effect, 100 = complete control
Method in brief: as §2

[21] = test system: morningglory; experiment: Test B pre-/postemergence herbicide test; assay type: in vivo, Ipomoea coccinea; settings: for Plant response rating (0 to 100 scale), Morningglory: 0 is no effect, 100 is complete control, preemergence
Method in brief: as §4

[22] = test system: Surinam grass; experiment: Test B pre-/postemergence herbicide test; assay type: in vivo, Urochloa decumbens; settings: for Plant response rating (0 to 100 scale), Surinam Grass: 0 is no effect, 100 is complete control, preemergence
Method in brief: as §3

[23] = test system: corn; experiment: Test B pre-/postemergence herbicide test; assay type: in vivo, Zea mays; settings: for Plant response rating (0 to 100 scale), Corn: 0 is no effect, 100 is complete control, preemergence
Method in brief: as §3

[24] = Postemergence, 125 g ai/ha, 0 to 100 scale, 0 no effect, 100 complete control
[25] = Postemergence, 500 g ai/ha, 0 to 100 scale, 0 no effect, 100 complete control
[26] = preemergence, 125 g ai/ha, visual injury, 0 to 100 scale (0 no effect, 100 complete control)
[27] = preemergence, 500 g ai/ha, visual injury, 0 to 100 scale (0 no effect, 100 complete control)
[28] = Postemergence, 500 g ai/ha, scale 0 (no effect) to 100 (complete control)
[29] = postemergence, 125 g ai/ha, scale 0 to 100
[30] = 500 g ai/ha, scale 0 to 100, 0 no effect, 100 complete control, preemergence
[31] = 125 g ai/ha, visual rating, scale 0 (no effect) to 100 (complete control), postemergence

CCn1nc(C(C)(C)C)nc1C(=O)Nc1cc(C(=O)N(C)C)ccc1F [Compound 450]
50: Foxtail, Giant plant response rating [2, 24] | Barnyardgrass plant response rating ([10]; 125 g ai/ha)
60: Rice plant response rating ([1]; 125 g ai/ha) | Sedge, Umbrella plant response rating ([3]; 125 g ai/ha) | Barnyardgrass plant response rating [4, 24] | Barnyardgrass plant response rating [4, 26] | Velvetleaf plant response rating [8, 25]
70: Foxtail, Giant plant response rating [2, 26] | Crabgrass, Large plant response rating [9, 25] | Crabgrass, Large plant response rating [9, 27]
30: Morningglory plant response rating [5, 25] | Velvetleaf plant response rating [8, 24]
25: Morningglory plant response rating [5, 24] | Pigweed plant response rating [7, 26]
95: Foxtail, Giant plant response rating [2, 27] | Barnyardgrass plant response rating [4, 27] | Pigweed plant response rating [7, 27]
35: Velvetleaf plant response rating [8, 27] | Crabgrass, Large plant response rating [9, 26]
0: Morningglory plant response rating [5, 26] | Velvetleaf plant response rating [8, 26]
40: Ducksalad plant response rating ([6]; 125 g ai/ha)
75: Foxtail, Giant plant response rating [2, 25]
20: Pigweed plant response rating [7, 24]
55: Pigweed plant response rating [7, 25]
15: Morningglory plant response rating [5, 27] | Crabgrass, Large plant response rating [9, 24]
80: Rice plant response rating ([1]; 500 g ai/ha) | Sedge, Umbrella plant response rating ([3]; 500 g ai/ha) | Barnyardgrass plant response rating [4, 25] | Ducksalad plant response rating ([6]; 500 g ai/ha) | Barnyardgrass plant response rating ([10]; 500 g ai/ha)

CCc1nn(C(C)(C)C)nc1C(=O)Nc1cccc(C(=O)N2CCCCC2)c1 [Compound 416]
90: Ducksalad plant response rating ([6]; 1000 g ai/ha)
30: Barnyardgrass plant response rating ([12]; Postemergence, 500 g ai/ha) | Foxtail, Giant plant response rating [14, 28] | Blackgrass plant response rating [17, 28] | Crabgrass, Large plant response rating [18, 29] | Oat, Wild plant response rating [19, 29] | Wheat plant response rating [20, 28] | Morningglory plant response rating [21, 29] | Surinam Grass plant response rating [22, 28] | Corn plant response rating [23, 28]
100: Plant response rating (0 to 100 scale), Crabgrass, Large ([18]; 125 g ai/ha)
20: Barnyardgrass plant response rating ([12]; Postemergence, 125 g ai/ha) | Foxtail, Giant plant response rating [14, 29] | Blackgrass plant response rating [17, 29] | Wheat plant response rating [20, 29] | Surinam Grass plant response rating [22, 29] | Plant response rating (0 to 100 scale), Corn ([23]; 125 g ai/ha) | Corn plant response rating [23, 29]
40: Velvetleaf plant response rating [11, 29] | Crabgrass, Large plant response rating [18, 28] | Oat, Wild plant response rating [19, 28]
0: Plant response rating (0 to 100 scale), Cocklebur ([13]; 125 g ai/ha) | Plant response rating (0 to 100 scale), Morningglory ([21]; 125 g ai/ha)
70: Rice plant response rating ([1]; 1000 g ai/ha) | Plant response rating (0 to 100 scale), Barnyardgrass ([12]; 125 g ai/ha) | Plant response rating (0 to 100 scale), Foxtail, Giant ([14]; 125 g ai/ha) | Lambsquarters plant response rating [15, 29] | Plant response rating (0 to 100 scale), Pigweed ([16]; 125 g ai/ha) | Morningglory plant response rating [21, 28]
50: Velvetleaf plant response rating [11, 28] | Cocklebur plant response rating [13, 29]
60: Cocklebur plant response rating [13, 28] | Pigweed plant response rating [16, 29] | Wheat plant response rating [20, 30] | Plant response rating (0 to 100 scale), Surinam Grass ([22]; 125 g ai/ha) | Barnyardgrass plant response rating ([10]; 1000 g ai/ha)
10: Plant response rating (0 to 100 scale), Velvetleaf ([11]; 125 g ai/ha)
80: Lambsquarters plant response rating [15, 28] | Sedge, Umbrella plant response rating ([3]; 1000 g ai/ha) | Pigweed plant response rating [16, 28]

C=CCN(CC=C)C(=O)c1cccc(NC(=O)c2nn(C(C)C)nc2CC)c1 [Compound 390]
30: Rice plant response rating ([1]; 1000 g ai/ha) | Foxtail, Giant plant response rating [14, 28] | Plant response rating (0 to 100 scale), Lambsquarters ([15]; 125 g ai/ha, 0 is no effect, 100 is complete control, preemergence)
20: Velvetleaf plant response rating [11, 28] | Cocklebur plant response rating [13, 31] | Cocklebur plant response rating [13, 28] | Crabgrass, Large plant response rating [18, 28] | Corn plant response rating [23, 28]
10: Barnyardgrass plant response rating ([12]; Postemergence, 500 g ai/ha) | Foxtail, Giant plant response rating [14, 31] | Blackgrass plant response rating [17, 28] | Plant response rating (0 to 100 scale), Crabgrass, Large ([18]; 125 g ai/ha) | Crabgrass, Large plant response rating [18, 31] | Oat, Wild plant response rating [19, 28] | Wheat plant response rating [20, 30] | Surinam Grass plant response rating [22, 28]
60: Lambsquarters plant response rating [15, 31] | Lambsquarters plant response rating [15, 28] | Sedge, Umbrella plant response rating ([3]; 1000 g ai/ha) | Pigweed plant response rating [16, 28]
50: Pigweed plant response rating [16, 31]
40: Ducksalad plant response rating ([6]; 1000 g ai/ha) | Morningglory plant response rating [21, 28]
0: Plant response rating (0 to 100 scale), Velvetleaf ([11]; 125 g ai/ha) | Velvetleaf plant response rating [11, 31] | Plant response rating (0 to 100 scale), Barnyardgrass ([12]; 125 g ai/ha) | Barnyardgrass plant response rating ([12]; 125 g ai/ha, visual rating, postemergence) | Plant response rating (0 to 100 scale), Cocklebur ([13]; 125 g ai/ha) | Plant response rating (0 to 100 scale), Foxtail, Giant ([14]; 125 g ai/ha) | Plant response rating (0 to 100 scale), Pigweed ([16]; 125 g ai/ha) | Blackgrass plant response rating [17, 31] | Oat, Wild plant response rating [19, 31] | Wheat plant response rating [20, 31] | Wheat plant response rating [20, 28] | Plant response rating (0 to 100 scale), Morningglory ([21]; 125 g ai/ha) | Morningglory plant response rating [21, 31] | Plant response rating (0 to 100 scale), Surinam Grass ([22]; 125 g ai/ha) | Surinam Grass plant response rating [22, 31] | Barnyardgrass plant response rating ([10]; 1000 g ai/ha) | Plant response rating (0 to 100 scale), Corn ([23]; 125 g ai/ha) | Corn plant response rating [23, 31]
